Test system: spontaneous respiration in male guinea pigs
Experiment: Analeptic respiratory activity after morphine depression
Type: in vivo
Conditions: 20 mg/kg intravenously; reference; before morphine 58, 20 minutes after morphine 29
Description: The spontaneous respiration in male guinea pigs, weighing 400-600 g, which have been anaesthetized, is recorded by means of a tracheal probe connected to an electronic recorder.
In a first stage, the respiration is depressed by an intravenous injection of 10 mg/kg of morphine. In a second stage, 20 minutes after the morphine, the product to be studied is injected intravenously.
The respiratory rhythm is recorded before the injection of morphine, and before and 1 minute after the injection of the product to be studied.

Q: `Cn1c(=O)c2[nH]cnc2n(C)c1=O` [theophylline] was tested. Which “respiratory rhythm 1 minute after administration of the product” value did it give?
A: 47 pulsations/minute
